Reference: US6737383B1, “Herbicidal oxadiazolidines” (priority 1999, dated 2004)

Experiments:
[1] = tested on: bedstraw; test: Test B pre/postemergence bedstraw; format: in vivo, Galium aparine
In short: (§1)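 Response is a visual 0-to-10 score relative to untreated plants, where 0 means no effect and 10 means complete control, taken twelve to sixteen days after application. Treatments went onto soil at planting and onto foliage of 1- to 4-leaf plants, using a surfactant-containing non-phytotoxic solvent.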

[2] = tested on: blackgrass; test: Test B pre/postemergence blackgrass; format: in vivo, Alopecurus myosuroides
In short: as §1

[3] = tested on: surinam grass; test: Test B pre/postemergence surinam grass; format: in vivo, Brachiaria decumbens
In short: as §1

[4] = tested on: cocklebur; test: Test B pre/postemergence cocklebur; format: in vivo, Xanthium strumarium
In short: as §1

[5] = tested on: corn; test: Test B pre/postemergence corn; format: in vivo, Zea mays
In short: as §1

[6] = tested on: crabgrass; test: Test B pre/postemergence crabgrass; format: in vivo, Digitaria sanguinalis
In short: as §1

[7] = tested on: giant foxtail; test: Test B pre/postemergence giant foxtail; format: in vivo, Setaria faberii
In short: as §1

[8] = tested on: pigweed; test: Test B pre/postemergence pigweed; format: in vivo, Amaranthus retroflexus
In short: as §1

[9] = tested on: soybean; test: Test B pre/postemergence soybean; format: in vivo, Glycine max
In short: as §1

[10] = tested on: sugar beet; test: Test B pre/postemergence sugar beet; format: in vivo, Beta vulgaris; conditions: for Plant response rating, Sugarbeets: Rate 250 g/ha
In short: as §1

[11] = tested on: velvetleaf; test: Test B pre/postemergence velvetleaf; format: in vivo, Abutilon theophrasti; conditions: for Plant response rating, Velvetleaf: Rate 250 g/ha
In short: as §1

[12] = tested on: wild oat; test: Test B pre/postemergence wild oat; format: in vivo, Avena fatua; conditions: for Plant response rating, Wild oats: Rate 250 g/ha
In short: as §1

[13] = tested on: purple nutsedge; test: Test B pre/postemergence purple nutsedge; format: in vivo, Cyperus rotundus
In short: as §1

[14] = tested on: rice; test: Test B flood test rice; format: in vivo, Oryza sativa
In short: (§2)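 Flood test on plants grown to the 2-leaf stage; treated plants kept in greenhouse twelve to sixteen days, then visually rated against controls on a 0 (no effect) to 10 (complete control) scale.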

[15] = tested on: smallflower flatsedge; test: Test B flood test smallflower flatsedge; format: in vivo, Cyperus difformis
In short: as §2

[16] = tested on: bamyardgrass; test: Test B flood test barnyardgrass; format: in vivo, Echinochloa crus-galli
In short: as §2

[17] = Postemergence, Rate 62 g/ha, scale 0 to 10, 0 is no effect, 10 is complete control
[18] = Postemergence, Rate 250 g/ha, scale 0 to 10, 0 no effect, 10 complete control
[19] = Preemergence, Rate 62 g/ha, scale 0 to 10 (0 no effect, 10 complete control)
[20] = Preemergence, Rate 125 g/ha, scale 0 to 10 (0 no effect, 10 complete control)
[21] = Preemergence, Rate 250 g/ha, scale of 0 to 10 where 0 is no effect and 10 is complete control
[22] = Preemergence, Rate 500 g/ha, scale 0 to 10 (0 no effect, 10 complete control)
[23] = Rate 125 g/ha, Postemergence, scale 0 to 10, 0 no effect, 10 complete control
[24] = Postemergence, Rate 125 g/ha, scale of 0 to 10 where 0 is no effect and 10 is complete control
[25] = Rate 62 g/ha, Postemergence, scale of 0 to 10 where 0 is no effect and 10 is complete control
[26] = Rate 500 g/ha, Postemergence, scale 0 to 10, 0 no effect, 10 complete control
[27] = Rate 250 g/ha, Postemergence, scale 0 to 10, 0 is no effect, 10 is complete control
[28] = Preemergence, Rate 125 g/ha, 0 is no effect, 10 is complete control
[29] = Preemergence, scale of 0 to 10 where 0 is no effect and 10 is complete control
[30] = Postemergence, scale 0 to 10, 0 is no effect, 10 is complete control
[31] = Postemergence (flood test species), Rate 125 g/ha, scale of 0 to 10 where 0 is no effect and 10 is complete control
[32] = Rate 62 g/ha, Postemergence section, flood test species, scale of 0 to 10 where 0 is no effect and 10 is complete control
[33] = Rate 250 g/ha, Postemergence (flood test), scale 0 to 10, 0 is no effect, 10 is complete control
[34] = Rate 500 g/ha, listed under Postemergence (flood test species), scale 0 to 10, 0 no effect, 10 complete control

CC(C)N(C(=O)n1oc(=O)n(C2CCCCC2)c1=O)c1ccc(F)cc1F [Compound 115]
Bedstraw plant response rating [1, 17]: 0
Bedstraw plant response rating [1, 18]: 4
Bedstraw plant response rating [1, 19]: 0
Plant response rating, Bedstraw [1, 20]: 0
Plant response rating, Bedstraw [1, 21]: 0
Bedstraw plant response rating [1, 22]: 0
Bedstraw plant response rating [1, 23]: 0
Blackgrass plant response rating [2, 24]: 4
Blackgrass plant response rating [2, 18]: 6
Blackgrass plant response rating [2, 19]: 0
Plant response rating, Blackgrass [2, 20]: 0
Plant response rating, Blackgrass [2, 21]: 0
Blackgrass plant response rating [2, 22]: 6
Blackgrass plant response rating [2, 25]: 4
Blackgrass plant response rating [2, 26]: 7
B. signalgrass plant response rating [3, 17]: 0
B. signalgrass plant response rating [3, 18]: 0
B. signalgrass plant response rating [3, 19]: 2
Plant response rating, B. signalgrass [3, 20]: 2
Plant response rating, B. signalgrass [3, 21]: 4
B. signalgrass plant response rating [3, 22]: 10
B. signalgrass plant response rating [3, 23]: 0
B. signalgrass plant response rating ([3]; Rate 500 g/ha, Postemergence, scale of 0 to 10 where 0 is no effect and 10 is complete control): 8
Cocklebur plant response rating [4, 24]: 0
Cocklebur plant response rating [4, 18]: 1
Cocklebur plant response rating [4, 19]: 0
Plant response rating, Cocklebur [4, 20]: 0
Plant response rating, Cocklebur [4, 21]: 0
Cocklebur plant response rating [4, 22]: 0
Cocklebur plant response rating [4, 25]: 0
Cocklebur plant response rating [4, 26]: 2
Corn plant response rating [5, 24]: 0
Corn plant response rating [5, 18]: 0
Corn plant response rating [5, 19]: 0
Plant response rating, Corn [5, 20]: 0
Plant response rating, Corn [5, 21]: 0
Corn plant response rating [5, 22]: 0
Corn plant response rating [5, 25]: 0
Corn plant response rating [5, 26]: 0
Crabgrass plant response rating [6, 24]: 0
Crabgrass plant response rating [6, 18]: 2
Crabgrass plant response rating [6, 19]: 4
Plant response rating, Crabgrass [6, 20]: 4
Plant response rating, Crabgrass [6, 21]: 7
Crabgrass plant response rating [6, 22]: 9
Crabgrass plant response rating [6, 25]: 0
Crabgrass plant response rating [6, 26]: 6
Giant foxtail plant response rating [7, 24]: 4
Giant foxtail plant response rating [7, 18]: 5
Giant foxtail plant response rating [7, 19]: 9
Plant response rating, Giant foxtail [7, 20]: 9
Plant response rating, Giant foxtail [7, 21]: 9
Giant foxtail plant response rating [7, 22]: 10
Giant foxtail plant response rating [7, 25]: 0
Giant foxtail plant response rating [7, 26]: 9
Redroot pigweed plant response rating [8, 24]: 0
Redroot pigweed plant response rating [8, 19]: 5
Plant response rating, Redroot pigweed [8, 20]: 5
Plant response rating, Redroot pigweed [8, 21]: 6
Redroot pigweed plant response rating [8, 22]: 8
Redroot pigweed plant response rating [8, 25]: 0
Plant response rating, Redroot pigweed [8, 27]: 0
Redroot pigweed plant response rating [8, 26]: 4
Soybean plant response rating [9, 24]: 1
Soybean plant response rating [9, 19]: 0
Plant response rating, Soybean [9, 20]: 0
Plant response rating, Soybean [9, 21]: 0
Soybean plant response rating [9, 22]: 0
Soybean plant response rating [9, 25]: 1
Plant response rating, Soybean [9, 27]: 4
Soybean plant response rating [9, 26]: 4
Sugarbeets plant response rating [10, 24]: 3
Sugarbeets plant response rating [10, 19]: 0
Sugarbeets plant response rating (0 to 10 scale) [10, 28]: 0
Plant response rating, Sugarbeets [10, 29]: 0
Sugarbeets plant response rating [10, 22]: 5
Sugarbeets plant response rating [10, 25]: 2
Plant response rating, Sugarbeets [10, 30]: 3
Sugarbeets plant response rating [10, 26]: 3
Velvetleaf plant response rating [11, 24]: 0
Velvetleaf plant response rating [11, 19]: 0
Velvetleaf plant response rating (0 to 10 scale) [11, 28]: 0
Plant response rating, Velvetleaf [11, 29]: 2
Velvetleaf plant response rating [11, 22]: 2
Velvetleaf plant response rating [11, 25]: 0
Plant response rating, Velvetleaf [11, 30]: 0
Velvetleaf plant response rating [11, 26]: 0
Wild oats plant response rating [12, 24]: 0
Wild oats plant response rating [12, 19]: 0
Wild oats plant response rating (0 to 10 scale) [12, 28]: 0
Plant response rating, Wild oats [12, 29]: 0
Wild oats plant response rating [12, 22]: 4
Wild oats plant response rating [12, 25]: 0
Plant response rating, Wild oats [12, 30]: 0
Wild oats plant response rating [12, 26]: 0
Nutsedge plant response rating [13, 24]: 0
Nutsedge plant response rating [13, 18]: 0
Nutsedge plant response rating [13, 19]: 0
Plant response rating, Nutsedge [13, 20]: 0
Plant response rating, Nutsedge [13, 21]: 0
Nutsedge plant response rating [13, 22]: 0
Nutsedge plant response rating [13, 25]: 0
Nutsedge plant response rating [13, 26]: 0
Rice plant response rating [14, 31]: 0
Rice plant response rating [14, 32]: 0
Plant response rating, Rice [14, 33]: 0
Rice plant response rating [14, 34]: 0
S. Flatsedge plant response rating [15, 31]: 0
S. Flatsedge plant response rating [15, 32]: 0
Plant response rating, S. Flatsedge [15, 33]: 0
S. Flatsedge plant response rating [15, 34]: 0
Barnyardgrass plant response rating [16, 17]: 0
Barnyardgrass plant response rating ([16]; Rate 125 g/ha, Postemergence section (flood test species), scale 0 to 10, 0 no effect, 10 complete control): 0
Barnyardgrass plant response rating [16, 34]: 0
Barnyardgrass plant response rating ([16]; flood test, listed under Postemergence, Rate 250 g/ha, scale 0 to 10, 0 no effect, 10 complete control): 0
